# Measurements as given in patent publication US6646006B2, “Enhancement of vascular function by modulation of endogenous nitric oxide production or activity” (The Board of Trustees of the Leland Stanford Junior …, priority 1993, dated 2003).
# “Also recorded” adds a separate entry of the source.
# What was measured:
# platelets = experiment: Platelet aggregometry in hypercholesterolemic humans after oral L-arginine; type: in vivo, human
# Source text: FIG. 13 is a set of histograms showing aggregation of platelets obtained in hypercholesterolemic humans (hc), and individuals with normal cholesterol levels (nc). Platelet aggregation ex vivo in response to adenosine diphosphate (ADP) is increased in hc individuals in comparison to normal individuals. […] (See Ex. 16)
# In this study we tested the hypothesis that chronic L-arginine supplementation would inhibit platelet reactivity in hypercholesterolemic humans. Venous blood was collected from normal (NC; n=11) and hypercholesterolemic (HC; n=22) volunteers for isolation of platelet-rich plasma and aggregometry. […]
# coronary arteries = experiment: Coronary response to intracoronary acetylcholine after intravenous L-arginine in cardiac transplant recipients; type: in vivo, human
# Method: Cardiac transplant recipients scheduled for elective annual coronary angiography at Stanford University hospital were screened for possible participation in the study. The study protocol was approved by the Stanford University Committee on Human Subjects in Medical Research. All patients gave written informed consent. Eighteen patients who had cardiac transplantation 1 to 13 years previously were studied.
# Vasoactive medications were discontinued at least 12 hours before the study. […] An infusion catheter was then advanced over a Doppler flow velocity guide wire into a nonbranching segment of the coronary artery for infusion of acetylcholine (which stimulates the endothelium to release NO). After baseline angiography was performed, increasing concentrations of acetylcholine were serially infused over 3 minutes. Infusion of acetylcholine continued until the maximum dose (10^−4 mol/L) was reached or until total coronary occlusion occurred. Then an intravenous infusion of L-arginine (30 g over 15 minutes) was performed. Thereafter, the intracoronary infusion of acetylcholine was repeated. Coronary angiography and Doppler flow velocity recording was performed at the end of the L-arginine infusion and after the infusion of each concentration of acetylcholine.
structure (smiles),measurement,setting,value
N=C(N)NCCC[C@H](N)C(=O)O [L-arginine],platelet aggregation in response to ADP,platelets; 2 weeks of oral L-arginine,attenuated
same,aggregability of HC platelets,"platelets; two weeks, collagen 5 mg/ml",reduced
same,complications or side-effects of the infusion,coronary arteries; 30 g i.v. over 15 minutes,no complications or side-effects
same,Epicardial coronary vasoconstriction caused by acetylcholine,"coronary arteries; acetylcholine 10^−4 mol/L, after L-arginine 30 g i.v. over 15 minutes",−2.8%
same,increase in coronary blood flow to acetylcholine,coronary arteries; after L-arginine 30 g i.v.,significantly enhanced; also recorded: improved
